We go through ten compounds from US20260092071A1, “COMPOUNDS AND COMPOSITIONS AS SMARCA2/4 DEGRADERS AND USES THEREOF” (REGENTS OF THE UNIVERSITY OF MICHIGAN, priority 2022, published 2026).

In one assay the target is SMARCA2 (Homo sapiens, UniProt P51531). Put plainly: HiBiT assay for protein degradation, Hela SMARCA2-HiBiT cells (A series).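 On SMARC A2 Hela HiBit Dmax (%): 24 h compound treatment.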 In kind it is cell-based. Details: Hela cells were genetically modified via CRISPR/Cas9 to fuse HiBiT to the carboxy terminus of SMARCA2; host or cells: HeLa (CRISPR/Cas9 HiBiT knock-in). As to conditions: for DC50: read-out: SMARC A2 Hela HiBit DC50; for Dmax: read-out: SMARC A2 Hela HiBit Dmax (%). Put shortly: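 SMARCA2 degradation was measured in HeLa cells whose endogenous SMARCA2 carries a carboxy-terminal HiBiT tag introduced by CRISPR/Cas9 (Promega CS302365). Cells were maintained in DMEM with FBS and penicillin-streptomycin. SMARCA2 levels were read at the end of the experiment by Nano-Glo® HiBiT lytic luminescence (Promega N3050) and analyzed in GraphPad Prism.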
Chain of SMARCA2 (P51531 whole entry): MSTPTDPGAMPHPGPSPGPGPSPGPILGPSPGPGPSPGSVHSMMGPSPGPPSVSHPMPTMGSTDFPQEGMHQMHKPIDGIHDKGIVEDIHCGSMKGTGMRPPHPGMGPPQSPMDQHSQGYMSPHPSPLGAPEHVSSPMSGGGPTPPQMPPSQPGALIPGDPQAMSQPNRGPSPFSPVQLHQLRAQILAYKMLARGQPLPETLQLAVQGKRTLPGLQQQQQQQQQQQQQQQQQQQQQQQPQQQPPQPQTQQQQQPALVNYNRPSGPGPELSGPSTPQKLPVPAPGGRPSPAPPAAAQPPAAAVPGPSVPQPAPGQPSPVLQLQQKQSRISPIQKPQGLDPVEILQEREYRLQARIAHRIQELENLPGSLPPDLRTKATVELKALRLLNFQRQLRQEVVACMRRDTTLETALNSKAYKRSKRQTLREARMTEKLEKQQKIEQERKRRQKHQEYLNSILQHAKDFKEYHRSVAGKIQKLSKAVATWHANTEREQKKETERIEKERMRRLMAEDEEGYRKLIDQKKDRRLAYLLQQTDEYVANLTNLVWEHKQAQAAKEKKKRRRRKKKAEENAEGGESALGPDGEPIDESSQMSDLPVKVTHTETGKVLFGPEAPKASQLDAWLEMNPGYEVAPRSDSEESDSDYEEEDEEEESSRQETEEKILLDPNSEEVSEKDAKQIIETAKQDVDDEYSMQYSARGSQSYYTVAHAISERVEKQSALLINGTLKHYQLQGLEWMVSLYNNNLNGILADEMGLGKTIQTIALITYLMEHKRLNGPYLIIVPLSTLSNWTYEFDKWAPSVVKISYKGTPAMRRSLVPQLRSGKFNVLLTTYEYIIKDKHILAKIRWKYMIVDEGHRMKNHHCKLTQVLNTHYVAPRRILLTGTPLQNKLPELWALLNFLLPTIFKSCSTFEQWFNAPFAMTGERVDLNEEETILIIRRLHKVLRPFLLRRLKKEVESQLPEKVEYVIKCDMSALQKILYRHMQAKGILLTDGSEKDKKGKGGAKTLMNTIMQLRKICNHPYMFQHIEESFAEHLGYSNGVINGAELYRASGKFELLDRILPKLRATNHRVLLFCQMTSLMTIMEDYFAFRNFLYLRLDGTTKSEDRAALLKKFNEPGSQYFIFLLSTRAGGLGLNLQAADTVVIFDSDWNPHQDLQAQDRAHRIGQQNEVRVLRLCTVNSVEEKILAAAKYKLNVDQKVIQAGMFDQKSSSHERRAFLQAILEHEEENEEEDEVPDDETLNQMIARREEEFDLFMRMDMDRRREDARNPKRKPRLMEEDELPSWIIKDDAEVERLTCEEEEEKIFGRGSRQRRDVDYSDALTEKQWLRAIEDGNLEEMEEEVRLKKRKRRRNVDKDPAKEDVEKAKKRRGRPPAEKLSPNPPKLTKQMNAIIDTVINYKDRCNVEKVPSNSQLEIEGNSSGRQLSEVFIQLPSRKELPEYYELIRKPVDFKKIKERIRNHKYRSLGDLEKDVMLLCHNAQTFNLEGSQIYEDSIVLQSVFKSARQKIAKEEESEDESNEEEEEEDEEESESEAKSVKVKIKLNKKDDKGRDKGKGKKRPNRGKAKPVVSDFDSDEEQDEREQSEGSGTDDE

A further assay concerns the target SMARCA4 (Homo sapiens, UniProt P51532). Put plainly: HiBiT assay for protein degradation, Hela SMARCA4-HiBiT cells (A series). It is filed as cell-based. Also on record: fuse HiBiT to the carboxy terminus of SMARCA2 (Promega CS302365) or SMARCA4 (Promega CS3023225); host or cells: HeLa (CRISPR/Cas9 HiBiT knock-in). As to conditions: for DC50: read-out: SMARC A4 Hela HiBit DC50. Put shortly: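 SMARCA4 degradation was measured in HeLa cells in which HiBiT had been knocked into the SMARCA4 carboxy terminus via CRISPR/Cas9 (Promega CS3023225). Cells were maintained in DMEM with FBS and penicillin-streptomycin. At the end of treatment, SMARCA4 levels were read by lytic HiBiT luminescence (Nano-Glo®, Promega N3050), and data were analyzed with GraphPad Prism.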

Where [1] appears, read: Hela SMARCA2-HiBiT cells, 24 hours treatment.
Setting [2] is: Hela SMARCA4-HiBiT cells, 24 hours treatment.
Setting [3] is: Hela SMARCA4-HiBiT cells, 24 hours treatment, read-out: SMARC A4 Hela HiBit Dmax.
Setting [4] is: Hela SMARCA4-HiBiT cells, 24 hours treatment, read-out: SMARC A4 Hela HiBit Dmax(%).

Like-named read-outs stand apart in the source and are kept apart here. Bounds are passed on as bounds.

Chain of SMARCA4 (P51532 whole entry): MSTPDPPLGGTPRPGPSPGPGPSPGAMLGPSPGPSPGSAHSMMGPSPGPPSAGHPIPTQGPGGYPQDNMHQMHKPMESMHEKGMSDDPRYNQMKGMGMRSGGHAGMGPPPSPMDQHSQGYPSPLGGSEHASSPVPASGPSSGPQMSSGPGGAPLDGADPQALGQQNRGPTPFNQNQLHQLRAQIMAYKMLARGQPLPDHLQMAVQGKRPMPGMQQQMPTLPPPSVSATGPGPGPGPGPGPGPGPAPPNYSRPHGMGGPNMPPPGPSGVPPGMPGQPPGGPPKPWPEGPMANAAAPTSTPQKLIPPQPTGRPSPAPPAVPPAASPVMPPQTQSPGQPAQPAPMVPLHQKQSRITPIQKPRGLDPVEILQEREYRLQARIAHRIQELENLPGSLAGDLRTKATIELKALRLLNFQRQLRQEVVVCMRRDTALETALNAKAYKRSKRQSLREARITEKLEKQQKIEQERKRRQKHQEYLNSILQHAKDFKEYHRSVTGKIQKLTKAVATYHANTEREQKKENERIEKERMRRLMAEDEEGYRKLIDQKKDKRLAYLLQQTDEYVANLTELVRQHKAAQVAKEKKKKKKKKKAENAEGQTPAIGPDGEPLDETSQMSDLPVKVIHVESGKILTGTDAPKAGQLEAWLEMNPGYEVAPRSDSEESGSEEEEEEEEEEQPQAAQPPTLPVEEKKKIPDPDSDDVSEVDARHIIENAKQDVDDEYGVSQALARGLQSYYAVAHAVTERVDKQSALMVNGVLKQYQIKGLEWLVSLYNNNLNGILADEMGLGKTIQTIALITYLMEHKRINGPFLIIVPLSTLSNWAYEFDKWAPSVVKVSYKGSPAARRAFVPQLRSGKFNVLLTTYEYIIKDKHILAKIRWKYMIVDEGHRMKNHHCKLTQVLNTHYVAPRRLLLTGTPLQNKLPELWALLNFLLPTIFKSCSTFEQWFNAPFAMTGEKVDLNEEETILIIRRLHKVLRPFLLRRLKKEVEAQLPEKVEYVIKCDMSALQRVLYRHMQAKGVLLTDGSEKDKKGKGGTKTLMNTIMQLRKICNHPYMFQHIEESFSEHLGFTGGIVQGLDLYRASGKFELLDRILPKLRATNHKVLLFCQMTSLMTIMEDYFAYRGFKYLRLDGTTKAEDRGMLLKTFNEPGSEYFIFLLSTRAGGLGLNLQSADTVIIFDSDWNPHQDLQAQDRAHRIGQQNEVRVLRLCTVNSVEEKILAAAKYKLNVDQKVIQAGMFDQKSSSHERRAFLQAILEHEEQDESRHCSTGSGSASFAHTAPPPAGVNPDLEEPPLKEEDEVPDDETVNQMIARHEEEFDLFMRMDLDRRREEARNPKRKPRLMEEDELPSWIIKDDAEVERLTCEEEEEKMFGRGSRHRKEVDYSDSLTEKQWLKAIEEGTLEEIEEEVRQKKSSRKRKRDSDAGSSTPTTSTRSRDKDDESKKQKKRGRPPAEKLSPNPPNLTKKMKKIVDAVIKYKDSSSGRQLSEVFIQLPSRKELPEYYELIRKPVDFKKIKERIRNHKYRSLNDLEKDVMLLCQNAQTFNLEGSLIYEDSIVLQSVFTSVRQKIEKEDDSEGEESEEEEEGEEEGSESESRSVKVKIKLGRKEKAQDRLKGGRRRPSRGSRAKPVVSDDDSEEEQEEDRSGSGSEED

Regarding `Cc1ncsc1-c1ccc([C@H](CN2CCOCC2)NC(=O)[C@@H]2C[C@@H](O)CN2C(=O)[C@@H](NC(=O)C2CC(CN3CCC(c4ccc5c(c4)C4(CCCCC4)c4nc(=O)c6c(Br)cccc6n4-5)CC3)C2)C(C)(C)C)cc1` (stereo partly drawn) [Compound A21, (2S,4R)-1-((S)-2-(3-((4-(4′-bromo-5′-oxo-5′H-spiro[cyclohexane-1,7′-indolo[1,2-a]quinazolin]-9′-yl)piperidin-1-yl)methyl)cyclobutane-1-carboxamido)-3,3-dimethylbutanoyl)-4-hydroxy-N—((R)-1-(4-(4-methylthiazol-5-yl)phenyl)-2-morpholinoethyl)pyrrolidine-2-carboxamide], on SMARCA2 (setting [1]), the “SMARC A2 Hela HiBit Dmax (%)” value is given as “A (A (>90% degradation))”. Moreover, the DC50 at SMARCA2 and on SMARCA4 was 100 to 500 nM throughout. For the same compound, the “SMARC A4 Hela HiBit Dmax(%)” value on SMARCA4 (setting [2]) was “C (C (50-69% degradation))”.
With `Cc1nc(C)c(-c2ccc([C@H](CN3CCOCC3)NC(=O)[C@@H]3C[C@@H](O)CN3C(=O)[C@@H](n3cc([C@H]4CC[C@H](CN5CCC(c6ccc7c(c6)-n6c(nc(=O)c8c(Cl)cccc86)C76CCCCC6)CC5)CC4)nn3)C(C)(C)C)cc2)s1` [Compound A161, (2S,4R)-1-((S)-2-(4-((1r,4S)-4-((4-(4′-chloro-5′-oxo-5′H-spiro[cyclohexane-1,7′-indolo[1,2-a]quinazolin]-10′-yl)piperidin-1-yl)methyl)cyclohexyl)-1H-1,2,3-triazol-1-yl)-3,3-dimethylbutanoyl)-N—((R)-1-(4-(2,4-dimethylthiazol-5-yl)phenyl)-2-morpholinoethyl)-4-hydroxypyrrolidine-2-carboxamide], the DC50 on SMARCA2 (setting [1]) is < 10 nM; on SMARCA4 (setting [2]), 100 to 1000 nM. In addition, the results for the Dmax on SMARCA2 (setting [1]) and on SMARCA4 (setting [3]) were > 90% and 50 to 69%, respectively.
For `Cc1ncsc1-c1ccc([C@H](C)NC(=O)[C@@H]2C[C@@H](O)CN2C(=O)[C@@H](n2cc([C@H]3CC[C@H](CN4CCC(c5ncc6c(n5)-n5c(nc(=O)c7c(Br)cccc75)C65CCCCC5)CC4)CC3)nn2)C(C)(C)C)cc1` [Compound A31, (2S,4R)-1-((S)-2-(4-((1r,4S)-4-((4-(4′-bromo-5′-oxo-5′H-spiro[cyclohexane-1,7′-pyrimido[5′,4′: 4,5]pyrrolo[1,2-a]quinazolin]-10′-yl)piperidin-1-yl)methyl)cyclohexyl)-1H-1,2,3-triazol-1-yl)-3,3-dimethylbutanoyl)-4-hydroxy-N—((S)-1-(4-(4-methylthiazol-5-yl)phenyl)ethyl)pyrrolidine-2-carboxamide], the DC50 at SMARCA2 (setting [1]) and at SMARCA4 (setting [2]) was > 1000 nM throughout. Further, the Dmax was < 50% on SMARCA2 (setting [1]) and 50 to 69% on SMARCA4 (setting [4]).
Take `Cc1ncsc1-c1ccc([C@H](C)NC(=O)[C@@H]2C[C@@H](O)CN2C(=O)[C@H](C2CCCCC2)n2cc([C@H]3CC[C@H](CN4CCC(c5ccc6c(c5)-n5c(nc(=O)c7c(Br)cccc75)C65CCCCC5)CC4)CC3)nn2)cc1` [Compound A119, (2S,4R)-1-((S)-2-(4-((1r,4S)-4-((4-(4′-bromo-5′-oxo-5′H-spiro[cyclohexane-1,7′-indolo[1,2-a]quinazolin]-10′-yl)piperidin-1-yl)methyl)cyclohexyl)-1H-1,2,3-triazol-1-yl)-2-cyclohexylacetyl)-4-hydroxy-N—((S)-1-(4-(4-methylthiazol-5-yl)phenyl)ethyl)pyrrolidine-2-carboxamide]: the DC50 at SMARCA2 (setting [1]) was < 10 nM; on SMARCA4 (setting [2]), 10 to 100 nM. Besides, the maximal degradation (Dmax) at SMARCA2 (setting [1]) is > 90%; at SMARCA4 (setting [3]), 70 to 90%.
In the same order, the values of `Cc1ncsc1-c1ccc([C@H](C)NC(=O)[C@@H]2C[C@@H](O)CN2C(=O)[C@H](C2CCNCC2)n2cc([C@H]3CC[C@H](CN4CCC(c5ccc6c(c5)-n5c(nc(=O)c7c(Cl)cccc75)C65CCCCC5)CC4)CC3)nn2)cc1` [Compound A109, (2S,4R)-1-((S)-2-(4-((1r,4S)-4-((4-(4′-chloro-5′-oxo-5′H-spiro[cyclohexane-1,7′-indolo[1,2-a]quinazolin]-10′-yl)piperidin-1-yl)methyl)cyclohexyl)-1H-1,2,3-triazol-1-yl)-2-(piperidin-4-yl)acetyl)-4-hydroxy-N—((S)-1-(4-(4-methylthiazol-5-yl)phenyl)ethyl)pyrrolidine-2-carboxamide] are 100 to 1000 nM, > 1000 nM, 70 to 90% and 50 to 69%.
For `Cc1ncsc1-c1ccc([C@H](C)NC(=O)[C@@H]2C[C@@H](O)CN2C(=O)[C@@H](n2cc([C@H]3CC[C@H](CN4CCC(c5ccc6c(c5)-n5c(nc(=O)c7c(Cl)cccc75)C6(C)C)CC4)CC3)nn2)C(C)(C)C)cc1` [Compound A89, (2S,4R)-1-((S)-2-(4-((1r,4S)-4-((4-(4-chloro-7,7-dimethyl-5-oxo-5,7-dihydroindolo[1,2-a]quinazolin-10-yl)piperidin-1-yl)methyl)cyclohexyl)-1H-1,2,3-triazol-1-yl)-3,3-dimethylbutanoyl)-4-hydroxy-N—((S)-1-(4-(4-methylthiazol-5-yl)phenyl)ethyl)pyrrolidine-2-carboxamide], the DC50 at SMARCA2 (setting [1]) was < 10 nM; at SMARCA4 (setting [2]), > 1000 nM. In addition, the Dmax on SMARCA2 (setting [1]) was > 90%; at SMARCA4 (setting [3]), 50 to 69%.
Turning to `Cc1ncsc1-c1ccc([C@H](CCCCN2CCC(c3ccc4c(c3)C3(CCCC3)c3nc(=O)c5c(Cl)cccc5n3-4)CC2)NC(=O)[C@@H]2C[C@@H](O)CN2C(=O)[C@@H](NC(=O)C2(F)CC2)C(C)(C)C)cc1` [Compound A1, (2S,4R)-N-((S)-5-(4-(4′-chloro-5′-oxo-5′H-spiro[cyclopentane-1,7′-indolo[1,2-a]quinazolin]-9′-yl)piperidin-1-yl)-1-(4-(4-methylthiazol-5-yl)phenyl)pentyl)-1-((S)-2-(1-fluorocyclopropane-1-carboxamido)-3,3-dimethylbutanoyl)-4-hydroxypyrrolidine-2-carboxamide], the DC50 is < 100 nM on SMARCA2 (setting [1]) and 100 to 500 nM on SMARCA4 (setting [2]). The greatest degradation seen (Dmax) at SMARCA2 (setting [1]) was > 90%; at SMARCA4 (setting [4]), 70 to 90%.
Regarding `Cc1ncsc1-c1ccc([C@H](CNC(=O)[C@H]2CC[C@H](CN3CCC(c4ccc5c(c4)C4(CCCCC4)c4nc(=O)c6c(Br)cccc6n4-5)CC3)CC2)NC(=O)[C@@H]2C[C@@H](O)CN2C(=O)[C@@H](n2cc(C3CC3)nn2)C(C)(C)C)cc1` [Compound A117, (2S,4R)—N—((R)-2-((1r,4R)-4-((4-(4′-bromo-5′-oxo-5′H-spiro[cyclohexane-1,7′-indolo[1,2-a]quinazolin]-9′-yl)piperidin-1-yl)methyl)cyclohexane-1-carboxamido)-1-(4-(4-methylthiazol-5-yl)phenyl)ethyl)-1-((S)-2-(4-cyclopropyl-1H-1,2,3-triazol-1-yl)-3,3-dimethylbutanoyl)-4-hydroxypyrrolidine-2-carboxamide], the DC50 on SMARCA2 (setting [1]) and at SMARCA4 (setting [2]) was > 1000 nM in each case. For the same compound, the Dmax at SMARCA2 (setting [1]) and on SMARCA4 (setting [3]) was < 50% each time.
For `Cc1ncsc1-c1ccc([C@H](C)NC(=O)[C@@H]2C[C@@H](O)CN2C(=O)[C@@H](NC(=O)CCN2CCC(c3ccc4c(c3)C3(CCCCC3)c3nc(=O)c5c(Cl)cccc5n3-4)CC2)C(C)(C)C)cc1` [Compound A6, (2S,4R)-1-((S)-2-(3-(4-(4′-chloro-5′-oxo-5′H-spiro[cyclohexane-1,7′-indolo[1,2-a]quinazolin]-9′-yl)piperidin-1-yl)propanamido)-3,3-dimethylbutanoyl)-4-hydroxy-N—((S)-1-(4-(4-methylthiazol-5-yl)phenyl)ethyl) pyrrolidine-2-carboxamide], the Dmax was 70 to 90% on SMARCA2 (HeLa) and 50 to 69% at SMARCA4 (HeLa, read-out: SMARC A4 Hela HiBit Dmax(%)). For the same compound, the results for the DC50 at SMARCA2 (setting [1]) and at SMARCA4 (setting [2]) were 100 to 500 nM and 501 to 1000 nM, respectively.
For `Cc1ncsc1-c1ccc([C@H](C)NC(=O)[C@@H]2C[C@@H](O)CN2C(=O)[C@@H](n2cc([C@H]3CC[C@H](CN4CCC(c5ccc6c(c5)-n5c(nc(=O)c7c(Br)cccc75)C65CCCCC5)CC4)CC3)nn2)C(C)(C)C)cc1` [Compound A49, (2S,4R)-1-((S)-2-(4-((1r,4S)-4-((4-(4′-bromo-5′-oxo-5′H-spiro[cyclohexane-1,7′-indolo[1,2-a]quinazolin]-10′-yl)piperidin-1-yl)methyl)cyclohexyl)-1H-1,2,3-triazol-1-yl)-3,3-dimethylbutanoyl)-4-hydroxy-N—((S)-1-(4-(4-methylthiazol-5-yl)phenyl)ethyl)pyrrolidine-2-carboxamide], on SMARCA2 (setting [1]), the “SMARC A2 Hela HiBit Dmax (%)” value is “A (A (>90% degradation))” and the DC50 was < 100 nM. Moreover, at SMARCA4 (setting [2]), the “SMARC A4 Hela HiBit Dmax(%)” value is recorded as “B (B (70-90% degradation))” and the DC50 fell in the range of 100 to 500 nM.
